Data as given in patent US20260083725A1, “SIGMARI LIGAND FOR THE TREATMENT OF PANCREATIC CANCER” (INSTITUT NATIONAL DE LA SANTÉ ET DE LA RECHERCHE MÉDICALE, priority 2022, published 2026).

How the values were obtained:
SK2 channel = assay: Whole cell patch clamp recording of SK2 current in pancreatic cancer cells; format: cell-based, human; settings: for CAF-CM-induced SK2 current: PANC-1 cells incubated with CAF-CM plus inhibitor or antibody
Method: Electrophysiological recordings in HEK293-T, PANC-1 and MiaPaCa-2 cells were performed in the whole cell configuration of the patch clamp technique at room temperature. Cells were bathed in a solution containing: 5 mM KCl, 145 mM NaCl, 1 mM MgCl2, 2 mM CaCl2, and 10 mM Hepes (pH adjusted to 7.4 with HCl, 300 mosm/L). Soft glass patch electrodes (Brand, Wertheim, Germany) were made on a horizontal pipette puller (P-97, Sutter Instrument Co., Novato, CA) to achieve a final resistance ranging from 3 to 5 MΩ. The internal solution was: 145 mM KCl, 1 mM MgCl2, 0.87 mM CaCl2, 1 mM EGTA, 10 mM Hepes, 1 mM ATP (pH adjusted to 7.2 with KOH, 308 mosm/L, pCa 6). Recordings were performed at room temperature in the voltage clamp mode using an PC-controlled EPC 9 patch-clamp amplifier (HEKA, Lambrecht/Pfalz, Germany). Currents were acquired and analyzed with Pulse and Pulsefit software (HEKA). Signal were filtered at 10 kHz and digitalized at 20 kHz. Currents were elicited by voltage ramps protocols (from −120 to +60 mV). Current density was measured at 0 mV. For the electrophysiological study of the SK2 mutations, HEK293-T were transfected with the different constructions and the HA-myr-AKT using calcium phosphate and recorded 24 h after transfection.

SK2/AKT interaction = assay: In situ proximity ligation assay of SK2/AKT interaction in PANC-1 cells; format: cell-based, human; settings: PANC-1 Sh RD cells, overnight CAF-CM + 1(S) ligand 1 μM; FIG. 1B
Method: The DuoLink in situ Proximity Ligation Assay (PLA) (Olink Bioscience, Uppsala, Sweden) was used to detect the interaction between SK2 and different candidates' partner (C-myc Sig-1R, EGFR, AKT, β1 integrin). PANC-1 cells expressing a stable Sh R D, Sh Sig-1R, or Sh SK2 were seeded on poly-Lysine (40 μg/mL) coated microscope slides. Cells were fixed with PFA 4% and permeabilized with triton X100 (0.05%). Cells were immunolabeled with primary antibodies: anti SK2 (1:100) and anti C-myc, (1:100) or anti EGFR (1:100), or anti AKT (1:100), or anti β1 integrin (1:100) for 1 h at 37° C. The secondary antibodies with attached PLA probes were supplied in the Duolink kit. Cellular PLA images were captured using an inverted Zeiss Axio Observer Z1 microscope (Zeiss, Jena, Germany). 6 to 10 fields have been imaged and quantified per conditions.

KICpdx1 mice = assay: Endogenous PDAC mice model (KICpdx1 mice) treated with 1(S) ligand; format: in vivo, mouse; settings: for median survival: once a week, non-treated 67 days
Method: Pdx1-Cre, Ink4afl/fl LSL-KrasG12D (KICpdx1) mice were obtained by crossing of the following strains: Pdx1-Cre, Ink4afl/fl, and LSL-KrasG12D mice provided by D. Melton (Harvard Stem Cell Institute, Cambridge, Massachusetts, USA), R. Depinho (Dana-Farber Cancer Institute, Boston, Massachusetts, USA), and T. Jacks (David H. Koch Institute for Integrative Cancer Research, Cambridge, Massachusetts, USA), respectively. PDAC-bearing 5- and 8-week-old mice were treated once a week with vehicle or 1(S) ligand (0.1 mg/injection/mouse) until experimental endpoint mice reaching sacrificing time or mice reaching physiological endpoints (cachexia criteria, limited movement, drinking or feeding of the mice). No exclusion has to be reported in all experiments as no mice reached a criteria of exclusion such as a fight-related wound or the development of ear inflammation.. To study final tumor volume, mice were euthanized at 9 weeks and tumors were weighted and fixed in 4% (wt/vol) formaldehyde for immunochemistry. For survival analyses, mice were euthanized when they developed ethical clinical end points defined by our institutional guidelines and European animal protection law. For all experiments, sample size was predicted following a Mann-Whitney statistical approach involving power calculation of 0.8 with a FDR of 0.05. A minimum number of 7 mice per group was predicted as able to reach significance. Bonferroni post-hoc test was used for multiples test comparison (two variance with time and/or treatment). Experimental technicians were proceeding with injections while personnel related to mice follow-up worked in a blinded approach. All animal care and experimental procedures were performed in agreement with the Animal Ethics Committee of Marseille then the French ministry of research and innovation under the reference Apafis#16998-2018100814458519.

Panc-1 cells = assay: Proliferation and viability assays on Panc-1 cells; format: cell-based; settings: control Panc-1 cells or cells silenced for Sig1R or SK2
[1] = KICpdx1 mice treated from 5 weeks, end-point at 9 weeks, versus untreated

| Structure (SMILES) | CAF-CM-induced SK2 current (SK2 channel) | association of SK2 and AKT (PLA, interactions per cell) (SK2/AKT interaction) | tumor progression (KICpdx1 mice; KICpdx1 mice treated from 5 weeks old, before the onset of PDAC) | median survival (KICpdx1 mice; KICpdx1 mice treated from 5 weeks old, 0.1 mg/injection/mouse, FIG. 1D) | histological examination of pancreas (KICpdx1 mice; KICpdx1 mice treated from 5 weeks, end-point at 9 weeks) | ECM density (trichrome labelling, desmoplasia) (KICpdx1 mice; [1]) | number of EMT-reprogramming epithelial cells (Pan-CK/αSMA co-staining) (KICpdx1 mice; [1]) | reduction of pancreas weight compared to non-treated (KICpdx1 mice; KICpdx1 mice treated from 5 weeks, end-point at 9 weeks, FIG. 1F) | pancreas weight (KICpdx1 mice; KICpdx1 mice treated from 5 weeks, end-point at 9 weeks, non-treated 1.44 g (±0.42), FIG. 1F) | median survival (KICpdx1 mice; KICpdx1 mice treated from 8 weeks of age (PDAC already developed), FIG. 1H) | metastasis onset (KICpdx1 mice; mouse models of PDAC treated with 1(S)) | CAF-CM mediated activation of SK2 (ISK2 current) (SK2 channel; PANC-1 cells exposed overnight to CAF-CM + 1(S) ligand 1 μM, patch-clamp, FIG. 1A) | effect on proliferation and viability (Panc-1 cells) |
| --- | --- | --- | --- | --- | --- | --- | --- | --- | --- | --- | --- | --- | --- |
| CCN(CC)CCCCN1c2ccccc2Oc2ccc(Cl)cc21 [DEBC, reference compound] | suppressed |  |  |  |  |  |  |  |  |  |  |  |  |
| CN(CCCN1C(=O)[C@@H]2Cc3ccccc3CN2C1=O)Cc1ccccc1 [Compound 1(S)] |  | prevented | significantly delayed | 84 days | almost lack of malignant lesions | lower | lower | 69% | 0.45 g | 77 days | reduced | abolished | does not exhibit any effect |
| C#Cc1cccc(Nc2ncnc3cc(OCCOC)c(OCCOC)cc23)c1 [Erlotinib, reference compound] | suppressed |  |  |  |  |  |  |  |  |  |  |  |  |
